Common to all, as to experiment: microbe, parasite or virus in culture
What all share (assay type): cell-based

In one experiment the test system is Bacillus megaterium. As to the method: (§1) The synthesized peptides were screened for antibacterial activity against five strains of G+ bacteria: B. subtilis (Bs, ATCC 23857), C. glutamicum (Cg, ATCC 13032), S. aureus (Sa, ATCC 9144), Micrococcus luteus (Ml), B. megaterium (Bm) (the last two were obtained from professor Olaf B. Styrvold, UiT The Arctic University of Norway).
(§2) Two strains of G- bacteria, P. aeruginosa (Pa, ATCC 27853) and E. coli (Ec, ATCC 25922), were also used. Cultures stored at -80 °C in glycerol were transferred to Müller–Hinton plates (MH, Difco Laboratories, Detroit, MI, USA) and incubated for 24 h at 35 °C. Colonies of each strain were transferred to 5 mL liquid MH medium and left shaking (600 rpm) at room temperature overnight. An aliquot of actively growing bacteria (20 µL) was inoculated in 5 mL MH medium and left shaking for 2 h at room temperature. In order to have a sensitive bioassay, the bacterial cultures were diluted with medium to only 2.5–3 × 10^4 bacteria/mL and an aliquot of 50 µL was added to each well in 96 microwell plates (Thermo Fisher Scientific, Roskilde, Denmark) preloaded with peptide solution (50 µL). The antibacterial assays were performed as previously described. The microtiter plates were incubated for 24 h at 35 °C with optical density (595 nm) recorded every hour using an Envision 2103 multilabel reader, controlled by a Wallac Envision manager (PerkinElmer, Waltham, MA, USA). The minimum inhibitory concentration (MIC) was defined as the sample concentration showing an optical density less than 10% of the negative (growth) control, consisting of bacteria and MQ-H2O. Oxytetracycline (concentrations ranging from 20–0.02 µg/mL, Sigma-Aldrich) and indolicidin (concentration ranging from 200–0.2 µg/mL, Sigma-Aldrich) served as a positive (inhibition) control. The synthetic peptides were tested for antibacterial activity in concentrations ranging from 250 to 0.5 µg/mL in two-fold dilutions. All tests were performed in triplicates.

Experiment [1] relates to Bacillus subtilis (ATCC 23857). As to the method: as §1, §2
Experiment [2] relates to Corynebacterium glutamicum (ATCC 13032). As to the method:
as §1, §2

A further experiment concerns Micrococcus luteus. As to the method: as §1, §2
Experiment [3] concerns Staphylococcus aureus (ATCC 9144). As to the method:
as §1, §2

Experiment [4] deals with Escherichia coli (ATCC 25922). How it is done: as §2
Experiment [5] concerns Pseudomonas aeruginosa (ATCC 27853). As to the method:
as §2

The subject of another experiment is Aureobasidium pullulans. As to the method: (§3) StAMP-1–11 were screened for antifungal activity against C. albicans (Ca, ATCC 10231), A. pullulans (Ap) and Rhodotorula sp. (Rh) (the last two were obtained from professor Arne Tronsmo, The Norwegian University of Life Sciences, Ås, Norway). The antifungal assay was performed as previously described with a few modifications. Briefly, fungal spores were dissolved in potato dextrose broth (Difco Laboratories) with 2% D(+)-glucose (Merck, Darmstadt, Germany) to a concentration of 4 × 10^5 spores/mL. The spores (50 µL) were inoculated on 96 microwell plates (Thermo Fisher Scientific) containing the synthetic peptides (50 µL) and controls (water or antibiotic). The peptides were diluted in MQ-H2O at final concentrations ranging from 250–3.9 µg/mL in two-fold serial dilutions. Triclosan (Sigma-Aldrich, Steinheim, Germany) was used as a positive (antifungal) control (32–0.25 µg/mL), and MQ-H2O as a negative (growth) control. Cultures were grown in room temperature for 24 h (Ca) and 48 h (Ap and Rh). Growth inhibition was determined by measuring OD values at 600 nm by a microplate reader (Synergy H1 Hybrid Multi-Mode Reader, BioTek, Winooski, VT, USA). […] All experiments were done in triplicate.

Experiment [6] relates to Candida albicans (ATCC 10231). How it is done: as §3
A further experiment relates to Rhodotorula sp. How it is done: as §3
[7] abbreviates: potato dextrose broth with 2% glucose, room temperature 48 h, OD 600 nm, >90% inhibition, triplicate.

Values after ≈ are worked out from the molar mass of the structure shown. Where no end group is shown, it is not given here.

`CC[C@H](C)[C@H](N)C(=O)N[C@@H](CC(C)C)C(=O)N1CCC[C@H]1C(=O)N[C@@H](Cc1c[nH]c2ccccc12)C(=O)N[C@@H](CCCCN)C(=O)N[C@@H](Cc1c[nH]c2ccccc12)C(=O)N1CCC[C@H]1C(=O)N[C@@H](Cc1c[nH]c2ccccc12)C(=O)N[C@@H](Cc1c[nH]c2ccccc12)C(=O)N1CCC[C@H]1C(=O)N[C@@H](Cc1c[nH]c2ccccc12)C(=O)N[C@@H](CCCNC(=N)N)C(=O)N[C@@H](CCCNC(=N)N)C(N)=O` [Indolicidin, reference compound]: the “Antimicrobial Activity (MIC) Bm” value in the experiment on Bacillus megaterium (Bacillus megaterium, MH medium, 24 h at 35 °C, OD 595 nm <10% of growth control, triplicates) is given as 3.1 µg/mL. The “Antimicrobial Activity (MIC) Bs” value in experiment [1] (Bacillus subtilis, MH medium, 24 h at 35 °C, OD 595 nm <10% of growth control, triplicates) came to 6.3 µg/mL. In addition, in [2] (Corynebacterium glutamicum, MH medium, 24 h at 35 °C, OD 595 nm <10% of growth control, triplicates), the “Antimicrobial Activity (MIC) Cg” value was determined as 1.6 µg/mL. Further, the “Antimicrobial Activity (MIC) Ml” value with Micrococcus luteus (Micrococcus luteus, MH medium, 24 h at 35 °C, OD 595 nm <10% of growth control, triplicates) is reported as 12.5 µg/mL. The “Antimicrobial Activity (MIC) Sa” value in [3] (Staphylococcus aureus, MH medium, 24 h at 35 °C, OD 595 nm <10% of growth control, triplicates) is 12.5 µg/mL. Besides, in [4] (Escherichia coli, MH medium, 24 h at 35 °C, OD 595 nm <10% of growth control, triplicates), the “Antimicrobial Activity (MIC) Ec” value worked out at 25.0 µg/mL. Moreover, the “Antimicrobial Activity (MIC) Pa” value in experiment [5] (Pseudomonas aeruginosa, MH medium, 24 h at 35 °C, OD 595 nm <10% of growth control, triplicates) was more than 250 µg/mL. The “Antimicrobial Activity (MIC) Ap” value in the experiment on Aureobasidium pullulans (setting [7]) is listed as 25.0 µg/mL. For the same compound, the “Antimicrobial Activity (MIC) Ca” value in experiment [6] (potato dextrose broth with 2% glucose, room temperature 24 h, OD 600 nm, >90% inhibition, triplicate) is 100 µg/mL. Besides, in the experiment on Rhodotorula sp. (setting [7]), the “Antimicrobial Activity (MIC) Rh” value came out at 25.0 µg/mL.

On to `CN(C)[C@@H]1C(O)=C(C(N)=O)C(=O)[C@@]2(O)C(O)=C3C(=O)c4c(O)cccc4[C@@](C)(O)[C@H]3[C@H](O)[C@@H]12` [Oxytetracycline, reference compound], for which the MIC in the experiment with Bacillus megaterium (Priestia megaterium, Bacillus megaterium, MH medium, 24 h at 35 °C, OD 595 nm <10% of growth control, triplicates, read-out: Antimicrobial Activity (MIC) Bm) was 0.6 µg/mL (≈ 1.3 µM); in [1] (ATCC23857, Bacillus subtilis, MH medium, 24 h at 35 °C, OD 595 nm <10% of growth control, triplicates, read-out: Antimicrobial Activity (MIC) Bs) it was 10 µg/mL (≈ 21.7 µM); in experiment [2] (ATCC13032, Corynebacterium glutamicum, MH medium, 24 h at 35 °C, OD 595 nm <10% of growth control, triplicates, read-out: Antimicrobial Activity (MIC) Cg) it was 0.2 µg/mL (≈ 0.434 µM); with Micrococcus luteus (Micrococcus luteus, MH medium, 24 h at 35 °C, OD 595 nm <10% of growth control, triplicates, read-out: Antimicrobial Activity (MIC) Ml), 1.3 µg/mL (≈ 2.82 µM); in experiment [3] (ATCC9144, Staphylococcus aureus, MH medium, 24 h at 35 °C, OD 595 nm <10% of growth control, triplicates, read-out: Antimicrobial Activity (MIC) Sa), 0.04 µg/mL (≈ 0.0869 µM); in experiment [4] (ATCC25922, Escherichia coli, MH medium, 24 h at 35 °C, OD 595 nm <10% of growth control, triplicates, read-out: Antimicrobial Activity (MIC) Ec), 1.3 µg/mL (≈ 2.82 µM). For the same compound, the MIC in experiment [5] (ATCC27853, Pseudomonas aeruginosa, MH medium, 24 h at 35 °C, OD 595 nm <10% of growth control, triplicates, read-out: Antimicrobial Activity (MIC) Pa) stood at 2.5 µg/mL (≈ 5.43 µM).

As for `Oc1cc(Cl)ccc1Oc1ccc(Cl)cc1Cl` [Triclosan, reference compound], the MIC in the experiment with Aureobasidium pullulans (Aureobasidium pullulans, 48 h, read-out: Antimicrobial Activity (MIC) Ap) was 3.1 µg/mL; in experiment [6] (Candida albicans, ATCC10231, 24 h, read-out: Antimicrobial Activity (MIC) Ca), 3.1 µg/mL; in the experiment on Rhodotorula sp. (Rhodotorula, 48 h, read-out: Antimicrobial Activity (MIC) Rh) it was 1.6 µg/mL.

In the case of GKKPGGWKAK-NH2 [StAMP-1], in the experiment with Bacillus megaterium (Bacillus, 24 h), the “Antimicrobial Activity (MIC) Bm” value turned out to be 250 µg/mL. Besides, the “Antimicrobial Activity (MIC) Bs” value in experiment [1] (ATCC 23857, 24 h) is on record as more than 250 µg/mL. The “Antimicrobial Activity (MIC) Cg” value in experiment [2] (ATCC 13032, 24 h) worked out at 250 µg/mL. In addition, in the experiment with Micrococcus luteus (24 h), the “Antimicrobial Activity (MIC) Ml” value is on record as more than 250 µg/mL. The “Antimicrobial Activity (MIC) Sa” value in experiment [3] (ATCC 9144, 24 h) is given as more than 250 µg/mL. Further, the “Antimicrobial Activity (MIC) Ec” value in experiment [4] (ATCC 25922, 24 h) is more than 250 µg/mL. In addition, the “Antimicrobial Activity (MIC) Pa” value in experiment [5] (ATCC 27853, 24 h) is recorded as more than 250 µg/mL. The “Antimicrobial Activity (MIC) Ap” value in the experiment with Aureobasidium pullulans (48 h) is reported as more than 250 µg/mL. Besides, the “Antimicrobial Activity (MIC) Ca” value in experiment [6] (ATCC 10231, 24 h) was more than 250 µg/mL. In addition, in the experiment on Rhodotorula sp. (48 h), the “Antimicrobial Activity (MIC) Rh” value is more than 250 µg/mL.

On to GKKPGWWKAK-NH2 [StAMP-4], for which the “Antimicrobial Activity (MIC) Bm” value in the experiment on Bacillus megaterium (Bacillus, 24 h) was found to be 3.9 µg/mL. The “Antimicrobial Activity (MIC) Bs” value in experiment [1] (ATCC 23857, 24 h) was determined as 125 µg/mL. Further, the “Antimicrobial Activity (MIC) Cg” value in experiment [2] (ATCC 13032, 24 h) was found to be 3.9 µg/mL. The “Antimicrobial Activity (MIC) Ml” value in the experiment on Micrococcus luteus (24 h) is given as 125 µg/mL. Further, the “Antimicrobial Activity (MIC) Sa” value in experiment [3] (ATCC 9144, 24 h) is on record as more than 250 µg/mL. Moreover, the “Antimicrobial Activity (MIC) Ec” value in [4] (ATCC 25922, 24 h) is reported as more than 250 µg/mL. In experiment [5] (ATCC 27853, 24 h), the “Antimicrobial Activity (MIC) Pa” value is more than 250 µg/mL. For the same compound, in the experiment on Aureobasidium pullulans (48 h), the “Antimicrobial Activity (MIC) Ap” value was found to be 62.5 µg/mL. Besides, the “Antimicrobial Activity (MIC) Ca” value in experiment [6] (ATCC 10231, 24 h) is 62.5 µg/mL. Moreover, in the experiment with Rhodotorula sp. (48 h), the “Antimicrobial Activity (MIC) Rh” value was 31.3 µg/mL.

Regarding GKKPWGWKAK-NH2 [StAMP-3], the “Antimicrobial Activity (MIC) Bm” value in the experiment with Bacillus megaterium (Bacillus, 24 h) stood at 3.9 µg/mL. The “Antimicrobial Activity (MIC) Bs” value in experiment [1] (ATCC 23857, 24 h) is more than 250 µg/mL. Moreover, the “Antimicrobial Activity (MIC) Cg” value in experiment [2] (ATCC 13032, 24 h) came out at 15.6 µg/mL. Moreover, the “Antimicrobial Activity (MIC) Ml” value with Micrococcus luteus (24 h) was 250 µg/mL. The “Antimicrobial Activity (MIC) Sa” value in [3] (ATCC 9144, 24 h) was more than 250 µg/mL. Also, the “Antimicrobial Activity (MIC) Ec” value in experiment [4] (ATCC 25922, 24 h) is on record as more than 250 µg/mL. In addition, the “Antimicrobial Activity (MIC) Pa” value in experiment [5] (ATCC 27853, 24 h) is recorded as more than 250 µg/mL. In addition, the “Antimicrobial Activity (MIC) Ap” value in the experiment on Aureobasidium pullulans (48 h) worked out at 62.5 µg/mL. Also, in experiment [6] (ATCC 10231, 24 h), the “Antimicrobial Activity (MIC) Ca” value is recorded as 125 µg/mL. The “Antimicrobial Activity (MIC) Rh” value in the experiment with Rhodotorula sp. (48 h) stood at 62.5 µg/mL.

These data come from publication PMC7432809, “Antimicrobial Activity of Small Synthetic Peptides Based on the Marine Peptide Turgencin A: Prediction of Antimicrobial Peptide Sequences in a Natural Peptide and Strategy for Optimization of Potency” (International Journal of Molecular Sciences, 2020).
